Laboratory results published in patent publication US12257264B2, “Combination therapy for HIV with adenosine derivative and capsid inhibitors” (Brii Biosciences, Inc., priority 2021, dated 2025).
Values joined by “and” are separate entries in the source; they are usually repeats but may differ in a detail not shown here. Identical values can stand only once.

Assays:
[1] = Plasma stability and conversion to EFdA; conditions: for half-life at 2 µM: human, plasma, pH 7.4
Procedure: The pooled frozen plasma was thawed in a water bath at 37° C. prior to experiment. Plasma was centrifuged at 4000 rpm for 5 min and the clots were removed if any. The pH will be adjusted to 7.4±0.1 if required.
Preparation of test compounds and positive control (propantheline bromide): 1 mM intermediate solution was prepared by diluting 10 μL of the stock solution with 90 μL MeOH; 1 mM intermediate of positive control Propantheline was prepared by diluting 10 μL of the stock solution with 90 μL ultrapure water. 100 μM dosing solution was prepared by diluting 20 μL of the intermediate solution (1 mM) with 180 μL MeOH. 98 μL of blank plasma was spiked with 2 μL of dosing solution (100 μM) to achieve 2 μM of the final concentration in duplicate and samples were incubated at 37° C. in a water bath. At each time point (0, 10, 30, 60 and 120 min), […] of stop solution (0.1% FA in MeOH containing 200 ng/mL tolbutamide and 200 ng/mL Labetalol) was added to precipitate protein and mixed thoroughly. Centrifuged sample plates at 4,000 rpm for 10 min. An aliquot of supernatant (100 μL) was transferred from each well to another plates.
Data analysis: The % remaining of test compound after incubation in plasma was calculated using following equation: % Remaining=100×(PAR at appointed incubation time/PAR at T0 time) where PAR is the peak area ratio of analyte versus internal standard (IS) (LC/MS/MS mobile phase condition: 0.1% Formic Acid in Water/0.1% Formic Acid in Acetonitrile. The appointed incubation time points are TO (0 min), Tn (n=0, 10, 30, 60, 120 min). Liver S9 Stability

[2] = Liver S9 stability and conversion to EFdA; type: in vitro ADME, human; conditions: for half-life at 1 µM: human liver S9, 37° C.
Procedure: Intermediate solution: Dilute 5 μL of compounds or controls (7-ethoxycoumarin) from stock solution (10 mM) with 495 μL MeOH (Conc.: 100 μM, 1% DMSO, 99% MeOH). Stop solution: Cold ACN (including 100 ng/mL Tolbutamide and Labetalol as internal standard). Add 2 μL test compound or control working solution/well to all plates (T0, T5, T10, T20, T30, T60, NCF60) except matrix blank. Add 600 μL/well stop solution (cold in 4° C., including 100 ng/mL Tolbutamide/100 ng/mL Labetalol) to terminate the TO plate, then put it on ice. Dispense 840 μL/well S9 solution to 96-well plate as reservoir according to plate map. Then add 100 μL/well to every plate by Apricot. Incubate S9 solution and compound at 37° C. for about 10 min except NCF60 and TO. After adding S9 solution and 98 μLPB buffer to NCF60, incubate at 37° C. without pre-warming, start timer 1. After 60 min, add 600 μL/well stop solution to terminate the reaction. After pre-warming, dispense 760 μL/well cofactor solution to 96-well plate as reservoir according to plate map. Then add 98 μL/well to every plate by Apricot to start reaction. Incubate at 37° C., start timer 2, Add 600 μL/well stop solution (cold in 4° C., including 100 ng/mL Tolbutamide and Labetalol) to terminate the reaction. Samples are centrifuged at 4000 rpm for 20 min. While centrifuging, load 8×new 96-well plate with 300 μL HPLC water, then transfer 100 μL supernatant, mix with water for LC/MS/MS, transferred to Bioanalytical Services for LC-MS/MS analysis. Use equation of first order kinetics to calculate t1/2 and CL: Equation of first order kinetics: […]

[3] = Plasma exposures following oral administration to beagle dogs; conditions: EFdA PO 5 mg/kg

Row | Compound | Stability in Human Plasma Formation of EFdA [1] | half-life at 2 µM [1] | Stability in Human Liver S9 Formation of EFdA [2] | half-life at 1 µM [2] | also measured
1 | C#C[C@]1(COC(=O)NC(C)C)O[C@@H](n2cnc3c(N)nc(F)nc32)C[C@@H]1O [Formula 2-A, ((2R,3S,5R)-5-(6-amino-2-fluoro-9H-purin-9-yl)-2-ethynyl-3-hydroxytetrahydrofuran-2-yl)methyl isopropylcarbamate] | No | > 200 min | No | 50 to 200 min | –
2 | C#C[C@]1(CO)O[C@@H](n2cnc3c(NC(=O)OC(C)C)nc(F)nc32)C[C@@H]1O [Formula 3-A, isopropyl (9-((2R,4S,5R)-5-ethynyl-4-hydroxy-5-(hydroxymethyl)tetrahydrofuran-2-yl)-2-fluoro-9H-purin-6-yl)carbamate] | No | > 200 min | No | 50 to 200 min | –
3 | C#C[C@]1(COC(=O)OCc2oc(=O)oc2C)O[C@@H](n2cnc3c(N)nc(F)nc32)C[C@@H]1OC(=O)OCc1oc(=O)oc1C [Formula 4-C, ((2R,3S,5R)-5-(6-amino-2-fluoro-9H-purin-9-yl)-2-ethynyl-3-((((5-methyl-2-oxo-1,3-dioxol-4-yl)methoxy)carbonyl)oxy)tetrahydrofuran-2-yl)methyl ((5-methyl-2-oxo-1,3-dioxol-4-yl)methyl) carbonate] | Yes | < 50 min | Yes | < 50 min | Conversion to the target drug (EFdA) in human plasma assay [1]: converted to the target drug efficiently; Conversion to the target drug (EFdA) in liver S9 assay [2]: converted to the target drug efficiently
4 | C#C[C@]1(COC(=O)NC)O[C@@H](n2cnc3c(N)nc(F)nc32)C[C@@H]1O [Formula 5-A, ((2R,3S,5R)-5-(6-amino-2-fluoro-9H-purin-9-yl)-2-ethynyl-3-hydroxytetrahydrofuran-2-yl)methyl methylcarbamate] | No | > 200 min | No | 50 to 200 min | –
5 | C#C[C@]1(CO)O[C@@H](n2cnc3c(NCc4oc(=O)oc4C)nc(F)nc32)C[C@@H]1O [Formula 6-A, 4-(((9-((2R,4S,5R)-5-ethynyl-4-hydroxy-5-(hydroxymethyl)tetrahydrofuran-2-yl)-2-fluoro-9H-purin-6-yl)amino)methyl)-5-methyl-1,3-dioxol-2-one] | No | < 50 min | Yes | < 50 min | Conversion to the target drug (EFdA) in liver S9 assay [2]: converted to the target drug efficiently
6 | C#C[C@]1(COC(=O)NCCN(C)Cc2oc(=O)oc2C)O[C@@H](n2cnc3c(N)nc(F)nc32)C[C@@H]1O [Formula 7-A, ((2R,3S,5R)-5-(6-amino-2-fluoro-9H-purin-9-yl)-2-ethynyl-3-hydroxytetrahydrofuran-2-yl)methyl (2-(methyl((5-methyl-2-oxo-1,3-dioxol-4-yl)methyl)amino)ethyl)carbamate] | No | 50 to 200 min | No | < 50 min | –
7 | C#C[C@]1(CO)O[C@@H](n2cnc3c(N)nc(F)nc32)C[C@@H]1O [Formula T-1A, (2R,3S,5R)-5-(6-amino-2-fluoro-9H-purin-9-yl)-2-ethynyl-2-(hydroxymethyl)tetrahydrofuran-3-ol, reference compound] | – | – | – | – | EFdA Concentrations in Dog Plasma ([3]; 0.250 hrs, individual animals, 5 mg/kg): 333 ng/mL and 276 ng/mL; EFdA Concentrations in Dog Plasma ([3]; 0.500 hrs, individual animals, 5 mg/kg): 299 ng/mL and 280 ng/mL; EFdA Concentrations in Dog Plasma ([3]; 1.00 hrs, individual animals, 5 mg/kg): 353 ng/mL and 361 ng/mL; EFdA Concentrations in Dog Plasma ([3]; 2.00 hrs, individual animals, 5 mg/kg): 212 ng/mL and 143 ng/mL; EFdA Concentrations in Dog Plasma ([3]; 4.00 hrs, individual animals, 5 mg/kg): 12.6 ng/mL and 17.9 ng/mL and 6.30 ng/mL; EFdA Concentrations in Dog Plasma ([3]; 6.00 hrs, individual animals): BQL; EFdA Concentrations in Dog Plasma ([3]; 8.00 hrs, individual animals): BQL; EFdA Concentrations in Dog Plasma ([3]; 12.0 hrs, individual animals): BQL; EFdA Concentrations in Dog Plasma ([3]; 24.0 hrs, individual animals): BQL; concentration at 0.25 h ([3]; male, beagle, dog, in vivo, po, 5 mg/kg, EFdA Concentrations in Dog Plasma, 0.250 hrs, Mean): 355 ng/mL; concentration at 0.25 h ([3]; male, beagle, dog, in vivo, po, 5 mg/kg, EFdA Concentrations in Dog Plasma, 0.250 hrs, individual animals): 456 ng/mL; concentration at 0.5 h ([3]; male, beagle, dog, in vivo, po, 5 mg/kg, EFdA Concentrations in Dog Plasma, 0.500 hrs, Mean): 323 ng/mL; concentration at 0.5 h ([3]; male, beagle, dog, in vivo, po, 5 mg/kg, EFdA Concentrations in Dog Plasma, 0.500 hrs, individual animals): 391 ng/mL; concentration at 1 h ([3]; male, beagle, dog, in vivo, po, 5 mg/kg, EFdA Concentrations in Dog Plasma, 1.00 hrs, Mean): 361 ng/mL; concentration at 1 h ([3]; male, beagle, dog, in vivo, po, 5 mg/kg, EFdA Concentrations in Dog Plasma, 1.00 hrs, individual animals): 369 ng/mL; concentration at 2 h ([3]; male, beagle, dog, in vivo, po, 5 mg/kg, EFdA Concentrations in Dog Plasma, 2.00 hrs, Mean): 189 ng/mL; concentration at 2 h ([3]; male, beagle, dog, in vivo, po, 5 mg/kg, EFdA Concentrations in Dog Plasma, 2.00 hrs, individual animals): 211 ng/mL; concentration at 4 h ([3]; male, beagle, dog, in vivo, po, 5 mg/kg, EFdA Concentrations in Dog Plasma, 4.00 hrs, Mean): 12.3 ng/mL
